Laboratory results published in ChEMBL document CHEMBL1146136, “Optimization of 2,4-diaminopyrimidines as GHS-R antagonists: side chain exploration” (Bioorg Med Chem Lett, 2006).

Key:
[1] = target: T1, Growth hormone secretagogue receptor type 1 (Homo sapiens, UniProt Q92847); assay: Inhibition of human GHS receptor by FLIPR; type: functional
[2] = target: T1, Growth hormone secretagogue receptor type 1; assay: Inhibition of human GHS receptor by binding assay
[3] = target: T2, Dihydrofolate reductase (Homo sapiens) (UniProt P00374); assay: Inhibition of human DHFR receptor at 1 uM
T2 sequence (whole entry): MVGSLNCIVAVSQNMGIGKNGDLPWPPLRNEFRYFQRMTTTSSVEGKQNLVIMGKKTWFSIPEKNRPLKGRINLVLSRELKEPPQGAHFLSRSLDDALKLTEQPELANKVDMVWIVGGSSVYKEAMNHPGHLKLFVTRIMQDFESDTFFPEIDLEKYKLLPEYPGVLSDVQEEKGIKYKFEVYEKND

[4] = target: T2, Dihydrofolate reductase (Homo sapiens); assay: Inhibition of human DHFR receptor at 10 uM
[5] = target: T2, Dihydrofolate reductase (Homo sapiens); assay: Inhibition of human DHFR receptor at 30 uM

T1 sequence (Q92847 whole entry): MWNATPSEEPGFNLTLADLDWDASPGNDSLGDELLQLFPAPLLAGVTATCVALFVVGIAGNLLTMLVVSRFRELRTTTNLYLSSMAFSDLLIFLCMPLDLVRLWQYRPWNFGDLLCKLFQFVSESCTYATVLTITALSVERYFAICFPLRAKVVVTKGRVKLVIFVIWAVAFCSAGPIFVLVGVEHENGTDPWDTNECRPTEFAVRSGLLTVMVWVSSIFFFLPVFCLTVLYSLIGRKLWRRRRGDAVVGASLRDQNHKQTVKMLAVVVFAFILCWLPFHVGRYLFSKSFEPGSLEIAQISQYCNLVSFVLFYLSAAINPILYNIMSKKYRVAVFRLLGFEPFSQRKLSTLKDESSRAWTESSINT

With `CC(C)c1nc(N)nc(N)c1-c1ccc(NCc2ccc(S(C)(=O)=O)cc2)cc1` the IC50 [1] was 14 nM and the IC50 [2] was 5.4 nM.
`CCc1nc(N)nc(Nc2ccccc2)c1-c1ccc(NCc2ccc(S(C)(=O)=O)cc2)cc1` was tested, and the IC50 [1] was over 10000 nM and the IC50 [2] was 700 nM.
Work on `CCc1nc(N)nc(NC)c1-c1ccc(NCc2ccc(S(C)(=O)=O)cc2)cc1` yielded an IC50 [1] of 69 nM, an inhibition [3] of 41% and an inhibition [4] of 82%. It also gave an IC50 [2] of 37 nM.
In the case of `CC(C)(C)c1nc(N)nc(N)c1-c1ccc(NCc2ccc(S(C)(=O)=O)cc2)cc1`, the IC50 [1] is reported as 11 nM, the inhibition [3] is reported as 47% and the inhibition [4] is reported as 87%.
In the case of `CS(=O)(=O)c1ccc(CNc2ccc(-c3c(N)nc(N)nc3CN3CCc4ccccc4C3)cc2)cc1`, the IC50 [1] is reported as 41 nM, the inhibition [3] is reported as 29% and the inhibition [4] is reported as 58%.
For `CCc1nc(N)nc(NC2CC2)c1-c1ccc(NCc2ccc(S(C)(=O)=O)cc2)cc1`, the IC50 [1] was over 10000 nM and the IC50 [2] was 601 nM.
`CN(Cc1nc(N)nc(N)c1-c1ccc(NCc2ccc(S(C)(=O)=O)cc2)cc1)c1ccccc1` was tested, and the IC50 [1] was 9 nM, the inhibition [3] was 42% and the inhibition [4] was 84%. It also gave an IC50 [2] of 2.5 nM.
In the case of `CS(=O)(=O)c1ccc(CNc2ccc(-c3c(N)nc(N)nc3COCc3ccccc3)cc2)cc1`, the IC50 [1] is reported as 7.1 nM and the IC50 [2] is reported as 0.3 nM.
In the case of `CCCCCCCCc1nc(N)nc(N)c1-c1ccc(NCc2ccc(S(C)(=O)=O)cc2)cc1`, the IC50 [1] is reported as 57 nM and the IC50 [2] is reported as 5.2 nM.
Molecule `CS(=O)(=O)c1ccc(CNc2ccc(-c3c(N)nc(N)nc3COCc3cccnc3)cc2)cc1` has an IC50 [1] of 187 nM and an IC50 [2] of 38 nM.
For `CS(=O)(=O)c1ccc(CNc2ccc(-c3c(N)nc(N)nc3[C@@H]3CC4C=CC3C4)cc2)cc1` (stereo not given in full), the IC50 [1] was 283 nM and the inhibition [4] was 45%.
`CCNc1nc(N)nc(CC)c1-c1ccc(NCc2ccc(S(C)(=O)=O)cc2)cc1` showed an IC50 [1] of over 10000 nM and an IC50 [2] of 244 nM.
In the case of `Cc1ccc(COCc2nc(N)nc(N)c2-c2ccc(NCc3ccc(S(C)(=O)=O)cc3)cc2)o1`, the IC50 [1] is reported as 9.7 nM and the IC50 [2] is reported as 3.4 nM.
For `CS(=O)(=O)c1ccc(CNc2ccc(-c3c(N)nc(N)nc3CN3Cc4ccccc4C3)cc2)cc1`, the IC50 [1] was 34 nM.
Molecule `CS(=O)(=O)c1ccc(CNc2ccc(-c3c(N)nc(N)nc3C3CCCCC3)cc2)cc1` has an IC50 [1] of 36 nM, an inhibition [3] of 16% and an inhibition [4] of 50%.
`COCc1nc(N)nc(N)c1-c1ccc(NCc2ccc(S(C)(=O)=O)cc2)cc1` showed an IC50 [1] of 53 nM and an IC50 [2] of 7.5 nM.
`CC(C)=CCOCc1nc(N)nc(N)c1-c1ccc(NCc2ccc(S(C)(=O)=O)cc2)cc1` gave an IC50 [1] of 1.9 nM and an IC50 [2] of 0.4 nM.
In the case of `CS(=O)(=O)c1ccc(CNc2ccc(-c3c(N)nc(N)nc3COCc3ccco3)cc2)cc1`, the IC50 [1] is reported as 9.6 nM and the IC50 [2] is reported as 2.7 nM.
`CN(Cc1ccccc1)Cc1nc(N)nc(N)c1-c1ccc(NCc2ccc(S(C)(=O)=O)cc2)cc1` gave an IC50 [1] of 69 nM and an IC50 [2] of 4 nM.
In the case of `CS(=O)(=O)c1ccc(CNc2ccc(-c3c(N)nc(N)nc3CNC3CC3)cc2)cc1`, the IC50 [1] is reported as 945 nM and the IC50 [2] is reported as 65 nM.
`CS(=O)(=O)c1ccc(CNc2ccc(-c3c(N)nc(N)nc3C3CC4CCC3C4)cc2)cc1` (stereo not given) was tested, and the IC50 [1] was 137 nM, the inhibition [3] was 3% and the inhibition [4] was 21%.
Work on `CS(=O)(=O)c1ccc(CNc2ccc(-c3c(N)nc(N)nc3C3CCC3)cc2)cc1` yielded an IC50 [1] of 14 nM.
With `CS(=O)(=O)c1ccc(CNc2ccc(-c3c(N)nc(N)nc3CNCC3CCCC3)cc2)cc1` the IC50 [1] was 316 nM and the IC50 [2] was 16 nM.
`CCCCc1nc(N)nc(N)c1-c1ccc(NCc2ccc(S(C)(=O)=O)cc2)cc1` was tested, and the IC50 [1] was 32 nM and the IC50 [2] was 11 nM.
In the case of `CS(=O)(=O)c1ccc(CNc2ccc(-c3c(N)nc(N)nc3[C@@H]3CCCO3)cc2)cc1`, the IC50 [1] is reported as 54 nM, the inhibition [4] is reported as 25% and the inhibition [5] is reported as 38%.
Work on `CCc1nc(N)nc(NCC(C)C)c1-c1ccc(NCc2ccc(S(C)(=O)=O)cc2)cc1` yielded an IC50 [1] of 2480 nM and an IC50 [2] of 199 nM.
Work on `CC(C)CCNCc1nc(N)nc(N)c1-c1ccc(NCc2ccc(S(C)(=O)=O)cc2)cc1` yielded an IC50 [1] of 1420 nM and an IC50 [2] of 61 nM.
`CCCCNc1nc(N)nc(CC)c1-c1ccc(NCc2ccc(S(C)(=O)=O)cc2)cc1` gave an IC50 [1] of 736 nM and an IC50 [2] of 276 nM.
For `CCCNc1nc(N)nc(CC)c1-c1ccc(NCc2ccc(S(C)(=O)=O)cc2)cc1`, the IC50 [1] was 237 nM and the IC50 [2] was 151 nM.
With `CS(=O)(=O)c1ccc(CNc2ccc(-c3c(N)nc(N)nc3CN)cc2)cc1` the IC50 [1] was 7160 nM and the IC50 [2] was 634 nM.
Work on `CS(=O)(=O)c1ccc(CNc2ccc(-c3c(N)nc(N)nc3C3CC3)cc2)cc1` yielded an IC50 [1] of 19 nM.
`CS(=O)(=O)c1ccc(CNc2ccc(-c3c(N)nc(N)nc3C3Cc4ccccc4O3)cc2)cc1` (stereo not given) showed an IC50 [1] of 38 nM.
`CCc1nc(N)nc(NCc2ccccc2)c1-c1ccc(NCc2ccc(S(C)(=O)=O)cc2)cc1` gave an IC50 [1] of 354 nM and an IC50 [2] of 248 nM.
In the case of `CS(=O)(=O)c1ccc(CNc2ccc(-c3c(N)nc(N)nc3[C@H]3CCCO3)cc2)cc1`, the IC50 [1] is reported as 57 nM and the inhibition [4] is reported as 84%.
Molecule `CNCc1nc(N)nc(N)c1-c1ccc(NCc2ccc(S(C)(=O)=O)cc2)cc1` has an IC50 [1] of 1380 nM and an IC50 [2] of 279 nM.
`CS(=O)(=O)c1ccc(CNc2ccc(-c3c(N)nc(N)nc3[C@H]3CC4C=CC3C4)cc2)cc1` (stereo not given in full) was tested, and the IC50 [1] was 66 nM, the inhibition [4] was 38% and the inhibition [5] was 55%.
In the case of `CS(=O)(=O)c1ccc(CNc2ccc(-c3c(N)nc(N)nc3CNCc3ccccc3)cc2)cc1`, the IC50 [1] is reported as 49 nM and the IC50 [2] is reported as 96 nM.
Work on `CS(=O)(=O)c1ccc(CNc2ccc(-c3c(N)nc(N)nc3CCC(=O)NCc3cccc(Cl)c3)cc2)cc1` yielded an IC50 [1] of 5.4 nM and an IC50 [2] of 2 nM.
Molecule `CC(C)Cc1nc(N)nc(N)c1-c1ccc(NCc2ccc(S(C)(=O)=O)cc2)cc1` has an IC50 [1] of 40 nM and an IC50 [2] of 10 nM.
`CS(=O)(=O)c1ccc(CNc2ccc(-c3c(N)nc(N)nc3CNc3ccccc3)cc2)cc1` was tested, and the IC50 [1] was 9.1 nM and the IC50 [2] was 5.5 nM.
For `CS(=O)(=O)c1ccc(CNc2ccc(-c3c(N)nc(N)nc3C3COc4ccccc4O3)cc2)cc1` (stereo not given), the IC50 [1] was 180 nM.
`CN(Cc1nc(N)nc(N)c1-c1ccc(NCc2ccc(S(C)(=O)=O)cc2)cc1)c1ccc(F)cc1` was tested, and the IC50 [1] was 10 nM.
Work on `CS(=O)(=O)c1ccc(CNc2ccc(-c3c(N)nc(N)nc3CNC3CCCC3)cc2)cc1` yielded an IC50 [1] of 3430 nM and an IC50 [2] of 122 nM.
With `CCOC(=O)CCc1nc(N)nc(N)c1-c1ccc(NCc2ccc(S(C)(=O)=O)cc2)cc1` the IC50 [1] was 82 nM.
With `CN(C)Cc1nc(N)nc(N)c1-c1ccc(NCc2ccc(S(C)(=O)=O)cc2)cc1` the IC50 [1] was 2580 nM and the IC50 [2] was 186 nM.
Molecule `CC(C)CCOCc1nc(N)nc(N)c1-c1ccc(NCc2ccc(S(C)(=O)=O)cc2)cc1` has an IC50 [1] of 6.8 nM, an inhibition [3] of 88% and an inhibition [4] of 97%. The IC50 [2] was 2.8 nM.
In the case of `CCCCCCc1nc(N)nc(N)c1-c1ccc(NCc2ccc(S(C)(=O)=O)cc2)cc1`, the IC50 [1] is reported as 62 nM and the IC50 [2] is reported as 6 nM.
`CCCCCc1nc(N)nc(N)c1-c1ccc(NCc2ccc(S(C)(=O)=O)cc2)cc1` gave an IC50 [1] of 211 nM and an IC50 [2] of 19 nM.
`Cc1cc(C)cc(CNC(=O)CCc2nc(N)nc(N)c2-c2ccc(NCc3ccc(S(C)(=O)=O)cc3)cc2)c1` showed an IC50 [1] of 3 nM, an inhibition [3] of 82% and an inhibition [4] of 93%. For the same molecule, the IC50 [2] was 0.4 nM.
Work on `CCc1nc(N)nc(N2CCOCC2)c1-c1ccc(NCc2ccc(S(C)(=O)=O)cc2)cc1` yielded an IC50 [1] of over 10000 nM and an IC50 [2] of 3250 nM.
In the case of `CS(=O)(=O)c1ccc(CNc2ccc(-c3c(N)nc(N)nc3CN3CCc4ccccc43)cc2)cc1`, the IC50 [1] is reported as 13 nM.
`CCc1nc(N)nc(N(CC)CC)c1-c1ccc(NCc2ccc(S(C)(=O)=O)cc2)cc1` showed an IC50 [1] of 380 nM and an IC50 [2] of 450 nM.
Molecule `CCCCCCCc1nc(N)nc(N)c1-c1ccc(NCc2ccc(S(C)(=O)=O)cc2)cc1` has an IC50 [1] of 38 nM and an IC50 [2] of 6 nM.
In the case of `CCc1nc(N)nc(N)c1-c1ccc(NCc2ccc(S(C)(=O)=O)cc2)cc1`, the IC50 [1] is reported as 37 nM, the inhibition [3] is reported as over 99% and the inhibition [4] is reported as over 99%. The IC50 [2] was 9.7 nM.
`CS(=O)(=O)c1ccc(CNc2ccc(-c3c(N)nc(N)nc3CNc3ccc(F)cc3)cc2)cc1` was tested, and the IC50 [1] was 12 nM and the IC50 [2] was 1.5 nM.
Molecule `CCc1nc(N)nc(N(C)C)c1-c1ccc(NCc2ccc(S(C)(=O)=O)cc2)cc1` has an IC50 [1] of 772 nM and an IC50 [2] of 192 nM.
Work on `CS(=O)(=O)c1ccc(CNc2ccc(-c3c(N)nc(N)nc3C3CCCC3)cc2)cc1` yielded an IC50 [1] of 21 nM, an inhibition [3] of 73% and an inhibition [4] of 97%.
`CCc1nc(N)nc(NCCO)c1-c1ccc(NCc2ccc(S(C)(=O)=O)cc2)cc1` showed an IC50 [1] of 3080 nM and an IC50 [2] of 354 nM.
